Holding throughout (experiment): Kinase inhibitor specificity profiling (Reaction Biology Corporation)
What all share (assay type): biochemical
Common to all, as to design: % Enzyme Activity (relative to DMSO controls): concentration or dose not given beside the values

The target of experiment [1] is T1, panel of 370 protein kinases (Homo sapiens, UniProt O15146).
T1 construct: purchased Reaction Biology Corporation (assay service)
As to conditions: 2 h, kinase MUSK; read-out: % Enzyme Activity (relative to DMSO controls).

Experiment [2] addresses T2, panel of 370 protein kinases (Homo sapiens, UniProt O15264).
T2 construct: purchased Reaction Biology Corporation (assay service)
As to conditions: 2 h, kinase P38d/MAPK13; read-out: % Enzyme Activity (relative to DMSO controls).

For experiment [3], the target named is T3, panel of 370 protein kinases (Homo sapiens, UniProt O95835).
T3 construct: purchased Reaction Biology Corporation (assay service)
As to conditions: 2 h, kinase LATS1; read-out: % Enzyme Activity (relative to DMSO controls).

The target of experiment [4] is T4, panel of 370 protein kinases (Homo sapiens, UniProt P08631).
T4 construct: purchased Reaction Biology Corporation (assay service)
The conditions noted are these: 2 h, kinase HCK; read-out: % Enzyme Activity (relative to DMSO controls).

In experiment [5] the target is T5, panel of 370 protein kinases (Homo sapiens, UniProt P36896).
T5 construct: purchased Reaction Biology Corporation (assay service)
The conditions noted are these: 2 h, kinase ALK4/ACVR1B; read-out: % Enzyme Activity (relative to DMSO controls).

Experiment [6] addresses T6, panel of 370 protein kinases (Homo sapiens, UniProt P43405).
T6 construct: purchased Reaction Biology Corporation (assay service)
As to conditions: kinase SYK.

Experiment [7] concerns the target T7, panel of 370 protein kinases (Homo sapiens, UniProt P48730).
T7 construct: purchased Reaction Biology Corporation (assay service)
The conditions noted are these: 2 h, kinase CK1d; read-out: % Enzyme Activity (relative to DMSO controls).

Experiment [8] addresses T8, panel of 370 protein kinases (Homo sapiens, UniProt P57059).
T8 construct: purchased Reaction Biology Corporation (assay service)
The conditions noted are these: kinase SIK1.

In experiment [9] the target is T9, panel of 370 protein kinases (Homo sapiens, UniProt Q04912).
T9 construct: purchased Reaction Biology Corporation (assay service)
As to conditions: 2 h, kinase RON/MST1R; read-out: % Enzyme Activity (relative to DMSO controls).

The target in experiment [10] is T10, panel of 370 protein kinases (Homo sapiens, UniProt Q16584).
T10 construct: purchased Reaction Biology Corporation (assay service)
The conditions noted are these: kinase MLK3/MAP3K11.

Experiment [11] has as its target T11, panel of 370 protein kinases (Homo sapiens, UniProt Q5TCY1).
T11 construct: purchased Reaction Biology Corporation (assay service)
The conditions noted are these: 2 h, kinase TTBK1; read-out: % Enzyme Activity (relative to DMSO controls).

In experiment [12] the target is T12, panel of 370 protein kinases (Homo sapiens, UniProt Q6P3R8).
T12 construct: purchased Reaction Biology Corporation (assay service)
The conditions noted are these: 2 h, kinase NEK5; read-out: % Enzyme Activity (relative to DMSO controls).

Experiment [13] has as its target T13, panel of 370 protein kinases (Homo sapiens, UniProt Q6P5Z2).
T13 construct: purchased Reaction Biology Corporation (assay service)
As to conditions: kinase PKN3/PRK3.

Experiment [14] has as its target T14, panel of 370 protein kinases (Homo sapiens, UniProt Q86Y07).
T14 construct: purchased Reaction Biology Corporation (assay service)
As to conditions: 2 h, kinase VRK2; read-out: % Enzyme Activity (relative to DMSO controls).

For experiment [15], the target named is T15, panel of 370 protein kinases (Homo sapiens, UniProt Q8N4C8).
T15 construct: purchased Reaction Biology Corporation (assay service)
As to conditions: 2 h, kinase MINK/MINK1; read-out: % Enzyme Activity (relative to DMSO controls).

Experiment [16] deals with T16, panel of 370 protein kinases (Homo sapiens, UniProt Q9BXA6).
T16 construct: purchased Reaction Biology Corporation (assay service)
The conditions noted are these: 2 h, kinase SSTK/TSSK6; read-out: % Enzyme Activity (relative to DMSO controls).

The target in experiment [17] is T17, panel of 370 protein kinases (Homo sapiens, UniProt Q9NYL2).
T17 construct: purchased Reaction Biology Corporation (assay service)
The conditions noted are these: 2 h, kinase ZAK/MLTK; read-out: % Enzyme Activity (relative to DMSO controls).

The target in experiment [18] is T18, panel of 370 protein kinases (Homo sapiens, UniProt Q9P286).
T18 construct: purchased Reaction Biology Corporation (assay service)
As to conditions: 2 h, kinase PAK5; read-out: % Enzyme Activity (relative to DMSO controls).

The target of experiment [19] is T19, panel of 370 protein kinases (Homo sapiens, UniProt Q9UIK4).
T19 construct: purchased Reaction Biology Corporation (assay service)
The conditions noted are these: 2 h, kinase DAPK2; read-out: % Enzyme Activity (relative to DMSO controls).

The target in experiment [20] is T20, panel of 370 protein kinases (Homo sapiens, UniProt Q9UL54).
T20 construct: purchased Reaction Biology Corporation (assay service)
As to conditions: 2 h, kinase TAOK2/TAO1; read-out: % Enzyme Activity (relative to DMSO controls).

The target of experiment [21] is T21, panel of 370 protein kinases (Homo sapiens, UniProt Q9Y2K2).
T21 construct: purchased Reaction Biology Corporation (assay service)
As to conditions: kinase SIK3.

Experiment [22] has as its target T22, panel of 370 protein kinases (Homo sapiens, UniProt Q9Y3S1).
T22 construct: purchased Reaction Biology Corporation (assay service)
As to conditions: 2 h, kinase WNK2; read-out: % Enzyme Activity (relative to DMSO controls).

“And” between values parts separate entries of the source, which are not always exact repeats. Identical values can stand only once.

T10 sequence (Q16584 whole entry): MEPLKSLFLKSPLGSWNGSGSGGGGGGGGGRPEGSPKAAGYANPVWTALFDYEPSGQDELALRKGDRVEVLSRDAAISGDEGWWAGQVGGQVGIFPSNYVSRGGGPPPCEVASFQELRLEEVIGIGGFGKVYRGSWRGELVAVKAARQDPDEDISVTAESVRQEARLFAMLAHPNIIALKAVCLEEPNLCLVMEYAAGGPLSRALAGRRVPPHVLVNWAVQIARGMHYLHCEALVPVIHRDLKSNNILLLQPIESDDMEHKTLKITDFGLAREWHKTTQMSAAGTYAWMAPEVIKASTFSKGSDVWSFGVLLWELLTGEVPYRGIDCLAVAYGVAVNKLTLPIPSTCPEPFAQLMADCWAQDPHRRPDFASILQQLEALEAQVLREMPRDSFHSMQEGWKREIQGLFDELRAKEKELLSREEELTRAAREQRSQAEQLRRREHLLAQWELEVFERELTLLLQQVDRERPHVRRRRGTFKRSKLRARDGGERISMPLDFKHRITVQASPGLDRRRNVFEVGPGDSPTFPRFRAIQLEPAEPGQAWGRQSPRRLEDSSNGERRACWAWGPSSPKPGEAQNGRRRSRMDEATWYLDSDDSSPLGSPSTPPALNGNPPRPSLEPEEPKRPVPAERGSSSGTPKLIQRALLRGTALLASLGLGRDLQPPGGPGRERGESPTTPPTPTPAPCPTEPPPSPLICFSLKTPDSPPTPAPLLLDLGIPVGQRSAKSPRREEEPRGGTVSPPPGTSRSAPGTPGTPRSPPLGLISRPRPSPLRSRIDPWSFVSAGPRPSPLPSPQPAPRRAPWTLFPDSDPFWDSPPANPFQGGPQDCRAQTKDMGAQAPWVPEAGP
T13 sequence (Q6P5Z2 whole entry): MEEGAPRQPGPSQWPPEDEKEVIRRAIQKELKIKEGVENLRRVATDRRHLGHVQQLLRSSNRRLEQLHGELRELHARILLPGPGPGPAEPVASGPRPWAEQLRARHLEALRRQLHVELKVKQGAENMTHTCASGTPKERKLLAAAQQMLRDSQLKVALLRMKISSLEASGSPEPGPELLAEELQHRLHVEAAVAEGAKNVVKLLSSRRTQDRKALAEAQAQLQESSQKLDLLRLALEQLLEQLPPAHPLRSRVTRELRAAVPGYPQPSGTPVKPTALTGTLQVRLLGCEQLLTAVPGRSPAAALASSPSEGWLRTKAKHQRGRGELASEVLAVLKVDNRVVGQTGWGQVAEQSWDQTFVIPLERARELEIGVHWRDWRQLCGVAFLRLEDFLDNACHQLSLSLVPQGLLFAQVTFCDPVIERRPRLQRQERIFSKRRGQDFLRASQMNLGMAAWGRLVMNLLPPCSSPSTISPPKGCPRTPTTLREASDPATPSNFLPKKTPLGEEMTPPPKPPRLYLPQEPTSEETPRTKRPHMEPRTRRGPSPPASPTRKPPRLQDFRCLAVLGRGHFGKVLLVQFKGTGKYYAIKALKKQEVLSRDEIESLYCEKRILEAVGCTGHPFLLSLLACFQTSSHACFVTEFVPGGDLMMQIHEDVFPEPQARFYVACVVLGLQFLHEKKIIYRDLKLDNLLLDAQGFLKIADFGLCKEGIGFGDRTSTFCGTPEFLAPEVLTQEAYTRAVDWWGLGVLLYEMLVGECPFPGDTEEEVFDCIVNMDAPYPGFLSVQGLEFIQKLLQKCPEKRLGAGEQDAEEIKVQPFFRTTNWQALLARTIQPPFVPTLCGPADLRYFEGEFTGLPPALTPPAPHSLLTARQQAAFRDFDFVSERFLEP
T8 sequence (P57059 whole entry): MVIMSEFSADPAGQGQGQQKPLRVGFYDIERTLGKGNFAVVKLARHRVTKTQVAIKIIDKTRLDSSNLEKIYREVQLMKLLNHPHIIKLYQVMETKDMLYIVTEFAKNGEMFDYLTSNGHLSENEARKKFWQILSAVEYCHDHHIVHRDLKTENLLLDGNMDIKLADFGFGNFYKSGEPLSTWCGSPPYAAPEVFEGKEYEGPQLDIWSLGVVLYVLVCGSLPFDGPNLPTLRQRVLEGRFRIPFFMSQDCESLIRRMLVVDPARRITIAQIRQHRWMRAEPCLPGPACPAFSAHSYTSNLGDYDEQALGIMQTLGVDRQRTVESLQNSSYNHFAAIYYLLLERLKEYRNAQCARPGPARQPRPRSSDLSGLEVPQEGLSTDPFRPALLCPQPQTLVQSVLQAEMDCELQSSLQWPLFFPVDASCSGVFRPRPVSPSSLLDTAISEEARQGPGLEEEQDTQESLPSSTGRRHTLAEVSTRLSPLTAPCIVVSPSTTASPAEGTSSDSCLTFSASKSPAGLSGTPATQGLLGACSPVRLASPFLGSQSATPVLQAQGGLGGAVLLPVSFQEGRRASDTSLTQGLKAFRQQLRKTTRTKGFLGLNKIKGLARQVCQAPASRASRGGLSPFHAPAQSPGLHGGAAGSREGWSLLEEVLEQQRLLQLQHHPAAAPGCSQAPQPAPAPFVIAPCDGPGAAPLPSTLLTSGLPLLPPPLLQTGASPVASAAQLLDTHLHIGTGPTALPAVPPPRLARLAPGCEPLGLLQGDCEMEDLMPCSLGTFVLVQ
T21 sequence (Q9Y2K2 whole entry): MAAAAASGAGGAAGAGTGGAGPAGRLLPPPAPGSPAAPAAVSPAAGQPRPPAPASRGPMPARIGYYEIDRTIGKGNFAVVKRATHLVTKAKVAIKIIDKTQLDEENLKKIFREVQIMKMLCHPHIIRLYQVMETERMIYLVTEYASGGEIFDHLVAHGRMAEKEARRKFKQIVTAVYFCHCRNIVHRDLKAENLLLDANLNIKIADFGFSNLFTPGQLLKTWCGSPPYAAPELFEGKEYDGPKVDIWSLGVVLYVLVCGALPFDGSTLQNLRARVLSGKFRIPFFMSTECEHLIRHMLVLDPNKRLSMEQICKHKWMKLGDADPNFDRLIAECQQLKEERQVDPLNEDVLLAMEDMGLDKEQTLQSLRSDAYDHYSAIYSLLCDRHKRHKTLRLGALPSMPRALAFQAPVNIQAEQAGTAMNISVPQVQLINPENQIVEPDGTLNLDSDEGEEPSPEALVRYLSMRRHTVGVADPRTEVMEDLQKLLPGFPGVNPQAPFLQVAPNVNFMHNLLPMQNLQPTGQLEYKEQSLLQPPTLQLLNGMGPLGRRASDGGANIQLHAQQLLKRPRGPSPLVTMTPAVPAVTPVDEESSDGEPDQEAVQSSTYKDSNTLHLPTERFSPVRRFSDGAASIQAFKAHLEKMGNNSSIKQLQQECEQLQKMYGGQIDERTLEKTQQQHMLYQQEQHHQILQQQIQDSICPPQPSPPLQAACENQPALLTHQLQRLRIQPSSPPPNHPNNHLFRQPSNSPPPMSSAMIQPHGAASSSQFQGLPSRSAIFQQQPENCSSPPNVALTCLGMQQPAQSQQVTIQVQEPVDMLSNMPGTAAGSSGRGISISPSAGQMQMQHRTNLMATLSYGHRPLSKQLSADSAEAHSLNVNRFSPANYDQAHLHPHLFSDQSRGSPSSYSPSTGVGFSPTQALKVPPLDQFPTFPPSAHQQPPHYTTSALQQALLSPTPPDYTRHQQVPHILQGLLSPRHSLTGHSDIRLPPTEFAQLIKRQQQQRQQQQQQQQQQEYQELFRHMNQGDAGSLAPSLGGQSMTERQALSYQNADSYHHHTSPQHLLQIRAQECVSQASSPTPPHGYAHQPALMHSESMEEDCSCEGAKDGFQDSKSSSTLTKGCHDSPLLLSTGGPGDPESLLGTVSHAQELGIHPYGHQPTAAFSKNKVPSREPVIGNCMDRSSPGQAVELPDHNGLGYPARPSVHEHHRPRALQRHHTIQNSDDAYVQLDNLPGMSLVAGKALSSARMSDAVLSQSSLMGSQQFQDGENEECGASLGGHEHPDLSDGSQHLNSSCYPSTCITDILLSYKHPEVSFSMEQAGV
T20 sequence (Q9UL54 whole entry): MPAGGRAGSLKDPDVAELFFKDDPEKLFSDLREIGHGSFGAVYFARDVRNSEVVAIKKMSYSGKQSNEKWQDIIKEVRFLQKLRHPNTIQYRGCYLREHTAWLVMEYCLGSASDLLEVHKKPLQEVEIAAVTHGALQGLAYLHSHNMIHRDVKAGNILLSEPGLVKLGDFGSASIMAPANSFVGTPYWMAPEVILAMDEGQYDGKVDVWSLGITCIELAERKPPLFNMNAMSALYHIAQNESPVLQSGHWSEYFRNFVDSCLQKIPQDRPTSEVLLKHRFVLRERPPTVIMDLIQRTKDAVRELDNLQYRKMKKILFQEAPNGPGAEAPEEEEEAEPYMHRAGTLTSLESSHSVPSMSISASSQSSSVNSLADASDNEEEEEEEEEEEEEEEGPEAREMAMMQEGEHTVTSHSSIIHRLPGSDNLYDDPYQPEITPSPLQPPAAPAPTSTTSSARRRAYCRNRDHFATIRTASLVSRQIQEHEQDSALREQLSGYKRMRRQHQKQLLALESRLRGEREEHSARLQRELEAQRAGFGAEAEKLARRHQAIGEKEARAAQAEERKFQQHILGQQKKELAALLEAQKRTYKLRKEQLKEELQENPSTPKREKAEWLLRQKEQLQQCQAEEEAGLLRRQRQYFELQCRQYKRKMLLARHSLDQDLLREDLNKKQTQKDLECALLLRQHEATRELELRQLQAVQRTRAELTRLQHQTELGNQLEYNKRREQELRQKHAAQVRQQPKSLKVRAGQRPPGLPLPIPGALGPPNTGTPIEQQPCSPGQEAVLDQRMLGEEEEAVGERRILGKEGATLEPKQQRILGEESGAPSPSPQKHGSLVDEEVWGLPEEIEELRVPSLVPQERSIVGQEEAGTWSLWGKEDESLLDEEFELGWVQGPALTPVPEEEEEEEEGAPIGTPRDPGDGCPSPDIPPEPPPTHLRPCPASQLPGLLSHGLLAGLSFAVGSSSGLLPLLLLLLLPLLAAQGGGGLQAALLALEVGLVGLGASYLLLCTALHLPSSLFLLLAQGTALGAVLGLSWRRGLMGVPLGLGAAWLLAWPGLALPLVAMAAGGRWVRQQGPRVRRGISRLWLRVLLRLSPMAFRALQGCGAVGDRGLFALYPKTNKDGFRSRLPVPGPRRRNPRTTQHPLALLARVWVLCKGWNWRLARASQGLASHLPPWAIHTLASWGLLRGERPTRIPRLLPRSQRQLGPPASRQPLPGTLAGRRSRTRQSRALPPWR

Turning to `CCN1CCN(C(=O)c2ccc(Nc3ncc(F)c(-c4ccc5nc(N(C)C)sc5c4)n3)nc2)CC1` [YK-2-69], the remaining activity at 1 µM is 89.2% in experiment [1]; 102% in experiment [2]; 95.2% in [3]; 105% in experiment [4]; 102% in experiment [5]; 104% in [7]. Besides, the remaining activity at 1 µM in experiment [9] worked out at 89.5%; in experiment [11], 97.4%; in experiment [12], 72.1%; in [14], 93.1%; in experiment [15], 100%; in experiment [16], 107%. Moreover, the remaining activity at 1 µM stood at 107% in [17]; 101% in [18]; 89.2% in experiment [19]; 97% in experiment [20]; 99.9% in experiment [22]. The “% Enzyme Activity (relative to DMSO controls)” value is 98.88% and 95.73% in experiment [6]; 99.48% and 98.60% in experiment [8]; 97.08% and 87.23% in experiment [10]; 103.56% and 103.10% in experiment [13]; 100.12% and 97.59% in experiment [21].

The record behind these values is PMC9133015 (Nature Communications, 2022).
